Source: ChEMBL document CHEMBL4673234, “Design, synthesis, biological evaluation and molecular docking of new uracil analogs-1,2,4-oxadiazole hybrids as potential anticancer agents” (Bioorg Med Chem Lett, 2020)
pIC50: −log10 of the molar value.

Legend:
A-375 [1] = test: Cytotoxicity against human A-375 cells assessed as cell viability at 5 uM incubated for 48 hrs (reference value: 100 %); format: functional; settings: read-out: Activity
A-375 [2] = test: Cytotoxicity against human A-375 cells assessed as cell viability at 10 uM incubated for 48 hrs (reference value: 100 %); format: functional; settings: read-out: Activity
A549 [3] = test: Cytotoxicity against human A549 cells assessed as reduction in cell viability incubated for 48 hrs; format: functional, cell-based; settings: A549, 48 h
MDA-MB-231 = test: Cytotoxicity against human MDA-MB-231 cells assessed as reduction in cell viability incubated for 48 hrs; format: functional, cell-based; settings: MDA-MB-231, 48 h
MCF7 = test: Cytotoxicity against human MCF7 cells assessed as reduction in cell viability incubated for 48 hrs; format: functional, cell-based; settings: MCF7, 48 h
HT-1080 [4] = test: Cytotoxicity against human HT-1080 cells assessed as reduction in cell viability incubated for 48 hrs; format: functional, cell-based; settings: HT-1080, 48 h
[5] = biological target: T1, Caspase-3/Caspase-7 (Homo sapiens) (UniProt P42574+P55210); test: Induction of caspase 3/7 proteolytic activity in human A549 cells assessed as induction of apoptosis by measuring viable cells at 5 uM incubated for 24 hrs by flow cytometry analysis (reference value: 88.91 %); format: cell-based; settings: filed as activator
T1 sequence (P42574 whole entry, looked up): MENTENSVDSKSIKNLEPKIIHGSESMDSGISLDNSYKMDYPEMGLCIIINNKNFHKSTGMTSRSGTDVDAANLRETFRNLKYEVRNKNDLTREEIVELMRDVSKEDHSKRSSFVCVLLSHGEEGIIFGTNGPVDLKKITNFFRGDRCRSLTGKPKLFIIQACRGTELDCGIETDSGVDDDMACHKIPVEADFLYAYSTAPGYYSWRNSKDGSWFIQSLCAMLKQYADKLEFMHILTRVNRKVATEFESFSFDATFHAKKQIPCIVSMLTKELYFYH
T1 sequence (P55210 whole entry, looked up): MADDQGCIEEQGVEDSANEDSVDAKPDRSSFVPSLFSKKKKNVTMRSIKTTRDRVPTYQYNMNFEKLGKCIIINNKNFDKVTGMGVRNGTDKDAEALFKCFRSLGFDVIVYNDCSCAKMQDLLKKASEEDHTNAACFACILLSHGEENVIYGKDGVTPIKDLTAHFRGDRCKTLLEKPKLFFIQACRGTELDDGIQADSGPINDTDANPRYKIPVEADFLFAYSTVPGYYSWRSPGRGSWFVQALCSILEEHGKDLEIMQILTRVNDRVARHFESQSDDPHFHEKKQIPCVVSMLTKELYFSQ

A549 [6] = test: Induction of apoptosis in human A549 cells assessed as early apoptotic cells at 5 uM incubated for 24 hrs by AnnexinV-FITC/7-AAD double staining based analysis relative to control; format: functional
HT-1080 [7] = test: Induction of apoptosis in human HT-1080 cells assessed as necrotic cells at 5 uM incubated for 24 hrs by AnnexinV-FITC/7-AAD double staining based analysis (reference value: 0.73 %); format: functional
HT-1080 [8] = test: Induction of mitochondrial membrane potential dysfunction in human HT-1080 cells assessed as viable cells at 5 uM incubated for 24 hrs by flow cytometry analysis (reference value: 90.10 %); format: functional; settings: read-out: Activity
[9] = biological target: T1, Caspase-3/Caspase-7 (Homo sapiens); test: Induction of caspase 3/7 proteolytic activity in human A549 cells assessed as induction of apoptosis by measuring dead cells at 5 uM incubated for 24 hrs by flow cytometry analysis (reference value: 2.90 %); format: cell-based
HT-1080 [10] = test: Induction of apoptosis in human HT-1080 cells at 5 uM incubated for 24 hrs by AnnexinV-FITC/7-AAD double staining based analysis (reference value: 1.34%); format: functional
A549 [11] = test: Induction of mitochondrial membrane potential dysfunction in human A549 cells assessed as dead cells at 5 uM incubated for 24 hrs by flow cytometry analysis (reference value: 9.92 %); format: functional
HT-1080 [12] = test: Induction of apoptosis in human HT-1080 cells assessed as late apoptotic cells at 5 uM incubated for 24 hrs by AnnexinV-FITC/7-AAD double staining based analysis (reference value: 0.12 %); format: functional
A549 [13] = test: Induction of apoptosis in human A549 cells assessed as necrotic cells at 5 uM incubated for 24 hrs by AnnexinV-FITC/7-AAD double staining based analysis (reference value: 1.04 %); format: functional
[14] = biological target: T1, Caspase-3/Caspase-7 (Homo sapiens); test: Induction of caspase 3/7 proteolytic activity in human HT-1080 cells assessed as induction of apoptosis by measuring dead cells at 5 uM incubated for 24 hrs by flow cytometry analysis (reference value: 2.15 %); format: cell-based
HT-1080 [15] = test: Induction of mitochondrial membrane potential dysfunction in human HT-1080 cells assessed as depolarized live cells at 5 uM incubated for 24 hrs by flow cytometry analysis (reference value: 2.28 %); format: functional
HT-1080 [16] = test: Induction of cell cycle arrest in human HT-1080 cells assessed as S phase at 5 uM incubated for 24 hrs by flow cytometry analysis (reference value: 10.3 %); format: functional
A549 [17] = test: Induction of mitochondrial membrane potential dysfunction in human A549 cells assessed as depolarized dead cells at 5 uM incubated for 24 hrs by flow cytometry analysis (reference value: 0.39 %); format: functional
A549 [18] = test: Induction of apoptosis in human A549 cells assessed as late apoptotic cells at 5 uM incubated for 24 hrs by AnnexinV-FITC/7-AAD double staining based analysis (reference value: 3.01 %); format: functional
A549 [19] = test: Induction of apoptosis in human A549 cells at 5 uM incubated for 24 hrs by AnnexinV-FITC/7-AAD double staining based analysis relative to control; format: functional
[20] = Induction of caspase 3/7 proteolytic activity in human HT-1080 cells assessed as induction of apoptosis at 5 uM incubated for 24 hrs by flow cytometry analysis relative to control; format: functional
A549 [21] = test: Induction of cell cycle arrest in human A549 cells assessed as S phase at 5 uM incubated for 24 hrs by flow cytometry analysis (reference value: 9.6 %); format: functional
HT-1080 [22] = test: Induction of apoptosis in human HT-1080 cells assessed as early apoptotic cells at 5 uM incubated for 24 hrs by AnnexinV-FITC/7-AAD double staining based analysis relative to control; format: functional
HT-1080 [23] = test: Induction of mitochondrial membrane potential dysfunction in human HT-1080 cells assessed as dead cells at 5 uM incubated for 24 hrs by flow cytometry analysis (reference value: 7.61 %); format: functional
HT-1080 [24] = test: Induction of apoptosis in human HT-1080 cells assessed as early apoptotic cells at 5 uM incubated for 24 hrs by AnnexinV-FITC/7-AAD double staining based analysis (reference value: 1.22 %); format: functional
A549 [25] = test: Induction of apoptosis in human A549 cells assessed as viable cells at 5 uM incubated for 24 hrs by AnnexinV-FITC/7-AAD double staining based analysis (reference value: 89.88 %); format: functional; settings: read-out: Activity
[26] = biological target: T1, Caspase-3/Caspase-7 (Homo sapiens); test: Induction of caspase 3/7 proteolytic activity in human A549 cells assessed as induction of apoptosis by measuring apoptotic cells at 5 uM incubated for 24 hrs by flow cytometry analysis (reference value: 2.54 %); format: cell-based
HT-1080 [27] = test: Induction of mitochondrial membrane potential dysfunction in human HT-1080 cells assessed as depolarized dead cells at 5 uM incubated for 24 hrs by flow cytometry analysis (reference value: 0.0 %); format: functional
A549 [28] = test: Induction of apoptosis in human A549 cells at 5 uM incubated for 24 hrs by AnnexinV-FITC/7-AAD double staining based analysis (reference value: 9.08%); format: functional
A549 [29] = test: Induction of apoptosis in human A549 cells assessed as early apoptotic cells at 5 uM incubated for 24 hrs by AnnexinV-FITC/7-AAD double staining based analysis (reference value: 6.07 %); format: functional
[30] = biological target: T1, Caspase-3/Caspase-7 (Homo sapiens); test: Induction of caspase 3/7 proteolytic activity in human HT-1080 cells assessed as induction of apoptosis by measuring apoptotic/dead cells at 5 uM incubated for 24 hrs by flow cytometry analysis (reference value: 4.97 %); format: cell-based
[31] = biological target: T1, Caspase-3/Caspase-7 (Homo sapiens); test: Induction of caspase 3/7 proteolytic activity in human HT-1080 cells assessed as induction of apoptosis by measuring apoptotic cells at 5 uM incubated for 24 hrs by flow cytometry analysis (reference value: 1.48 %); format: cell-based
A549 [32] = test: Induction of cell cycle arrest in human A549 cells assessed as G2/M phase at 5 uM incubated for 24 hrs by flow cytometry analysis (reference value: 11.6 %); format: functional
HT-1080 [33] = test: Induction of cell cycle arrest in human HT-1080 cells assessed as G2/M phase at 5 uM incubated for 24 hrs by flow cytometry analysis (reference value: 25.6 %); format: functional
A549 [34] = test: Induction of mitochondrial membrane potential dysfunction in human A549 cells assessed as viable cells at 5 uM incubated for 24 hrs by flow cytometry analysis (reference value: 86.64 to 88.54 %); format: functional; settings: read-out: Activity
[35] = Induction of caspase 3/7 proteolytic activity in human A549 cells assessed as induction of apoptosis at 5 uM incubated for 24 hrs by flow cytometry analysis relative to control; format: functional
HT-1080 [36] = test: Induction of apoptosis in human HT-1080 cells assessed as viable cells at 5 uM incubated for 24 hrs by AnnexinV-FITC/7-AAD double staining based analysis (reference value: 97.92 %); format: functional; settings: read-out: Activity
HT-1080 [37] = test: Induction of cell cycle arrest in human HT-1080 cells assessed as G0/G1 phase at 5 uM incubated for 24 hrs by flow cytometry analysis (reference value: 63 %); format: functional
A549 [38] = test: Induction of cell cycle arrest in human A549 cells assessed as G0/G1 phase at 5 uM incubated for 24 hrs by flow cytometry analysis (reference value: 73.5 %); format: functional
HT-1080 [39] = test: Induction of apoptosis in human HT-1080 cells at 5 uM incubated for 24 hrs by AnnexinV-FITC/7-AAD double staining based analysis relative to control; format: functional
[40] = biological target: T1, Caspase-3/Caspase-7 (Homo sapiens); test: Induction of caspase 3/7 proteolytic activity in human A549 cells assessed as induction of apoptosis by measuring apoptotic/dead cells at 5 uM incubated for 24 hrs by flow cytometry analysis (reference value: 5.65 %); format: cell-based
[41] = biological target: T1, Caspase-3/Caspase-7 (Homo sapiens); test: Induction of caspase 3/7 proteolytic activity in human HT-1080 cells assessed as induction of apoptosis by measuring viable cells at 5 uM incubated for 24 hrs by flow cytometry analysis (reference value: 91.39 %); format: cell-based; settings: filed as activator
A549 [42] = test: Induction of mitochondrial membrane potential dysfunction in human A549 cells assessed as depolarized live cells at 5 uM incubated for 24 hrs by flow cytometry analysis (reference value: 1.16 %); format: functional

O=c1cnn(Cc2ccc(-c3noc(-c4ccccc4)n3)cc2)c(=O)[nH]1
viability at 5 µM (A-375 [1]): 100% | viability at 10 µM (A-375 [2]): 62%

COc1ccc(-c2nc(-c3ccc(Cn4ccc(=O)[nH]c4=O)cc3)no2)cc1
viability at 5 µM (A-375 [1]): 59% | viability at 10 µM (A-375 [2]): 55%

COc1ccc(-c2ccc(-c3nc(-c4ccc(Cn5cc(F)c(=O)[nH]c5=O)cc4)no3)cc2)cc1
viability at 5 µM (A-375 [1]): 29% | pIC50 (A549 [3]): 5.40 | pIC50 (MDA-MB-231): 5.19 | viability at 10 µM (A-375 [2]): 23% | pIC50 (MCF7): 6.05 | pIC50 (HT-1080 [4]): 6.01

COc1ccc(-c2nc(-c3ccc(Cn4ncc(=O)[nH]c4=O)cc3)no2)cc1
viability at 5 µM (A-375 [1]): 53% | viability at 10 µM (A-375 [2]): 55%

O=c1[nH]c(=O)n(Cc2ccc(-c3noc(-c4ccc(-c5ccccc5)cc4)n3)cc2)cc1F
Activity [5]: 64.3% | fold change (FC) (A549 [6]): 1.5 | Activity (HT-1080 [7]): 1.49% | viability at 5 µM (A-375 [1]): 29% | viability at 5 µM (HT-1080 [8]): 78.7% | Activity [9]: 6.64% | Activity (HT-1080 [10]): 13.81% | Activity (A549 [11]): 20.29% | Activity (HT-1080 [12]): 9.56% | Activity (A549 [13]): 3.26% | Activity [14]: 9.15% | Activity (HT-1080 [15]): 3.61% | Activity (HT-1080 [16]): 13.9% | Activity (A549 [17]): 0.63% | Activity (A549 [18]): 14.72% | pIC50 (A549 [3]): 5.51 | fold change (FC) (A549 [19]): 3 | fold change (FC) [20]: 3 | Activity (A549 [21]): 12% | fold change (FC) (HT-1080 [22]): 3.5 | Activity (HT-1080 [23]): 16.96% | Activity (HT-1080 [24]): 4.25% | viability at 5 µM (A549 [25]): 72.7% | Activity [26]: 3.25% | pIC50 (MDA-MB-231): 5.08 | Activity (HT-1080 [27]): 0% | Activity (A549 [28]): 29.01% | Activity (A549 [29]): 9.29% | Activity [30]: 19.4% | Activity [31]: 2.87% | viability at 10 µM (A-375 [2]): 17% | pIC50 (MCF7): 5.92 | Activity (A549 [32]): 11.5% | Activity (HT-1080 [33]): 24.1% | viability at 5 µM (A549 [34]): 78% | fold change (FC) [35]: 3 | viability at 5 µM (HT-1080 [36]): 84.7% | pIC50 (HT-1080 [4]): 6.06 | Activity (HT-1080 [37]): 59.9% | Activity (A549 [38]): 71.8% | fold change (FC) (HT-1080 [39]): 10 | Activity [40]: 25.8% | Activity [41]: 68.6% | Activity (A549 [42]): 1.03%

O=c1ccn(Cc2ccc(-c3noc(-c4ccc(-c5ccccc5)cc4)n3)cc2)c(=O)[nH]1
viability at 5 µM (A-375 [1]): 85% | viability at 10 µM (A-375 [2]): 82%

COc1ccc(-c2nc(-c3ccc(Cn4cc(F)c(=O)[nH]c4=O)cc3)no2)cc1
viability at 5 µM (A-375 [1]): 50% | viability at 10 µM (A-375 [2]): 82%

COc1cccc2c1C(=O)c1c(O)c3c(c(O)c1C2=O)C[C@@](O)(C(=O)CO)C[C@@H]3O[C@H]1C[C@H](N)[C@H](O)[C@H](C)O1 [DOXORUBICIN]
pIC50 (A549 [3]): 5.57 | pIC50 (MDA-MB-231): 5.47 | pIC50 (MCF7): 5.74 | pIC50 (HT-1080 [4]): 6.03

O=c1[nH]c(=O)n(Cc2ccc(-c3noc(-c4ccccc4)n3)cc2)cc1F
viability at 5 µM (A-375 [1]): 56% | viability at 10 µM (A-375 [2]): 30%

N/C(=N\O)c1ccc(Cn2ncc(=O)[nH]c2=O)cc1
viability at 5 µM (A-375 [1]): 100% | viability at 10 µM (A-375 [2]): 94%

O=c1ccn(Cc2ccc(-c3noc(-c4ccccc4)n3)cc2)c(=O)[nH]1
viability at 5 µM (A-375 [1]): 76% | viability at 10 µM (A-375 [2]): 72%

COc1ccc(-c2ccc(-c3nc(-c4ccc(Cn5ncc(=O)[nH]c5=O)cc4)no3)cc2)cc1
viability at 5 µM (A-375 [1]): 76% | viability at 10 µM (A-375 [2]): 44%
